# In patent US20230011869A1 (Hoffmann-La Roche Inc., priority 2018, published 2023):
# Structures can show the parent of a compound that is named as a salt. Where two headings read alike, the source gives them in different places.
# Test system: Acinetobacter baumannii ATCC17978
# Assay: Antimicrobial susceptibility testing: 90% growth inhibitory concentration (IC90) determination, Iso-Sensitest broth
# Format: cell-based
# Description: Antimicrobial Susceptibility Testing:
# 90% Growth Inhibitory Concentration (IC90) Determination
# The in vitro antimicrobial activity of the compounds was determined according to the following procedure:
# The assay used a 10-points Iso-Sensitest broth medium to measure quantitatively the in vitro activity of the compounds against Acinetobacter baumannii ATCC17978 and Acinetobacter baumannii ATCC17961.
# Microtiter plates were incubated at 35±2° C.
# Bacterial cell growth was determined with the measurement of optical density at λ=600 nm each 20 minutes over a time course of 16 h. Growth inhibition was calculated during the logarithmic growth of the bacterial cells with determination of the concentration inhibiting 50% (IC50) and 90% (IC90) of the growth.
# [1] = 90% growth inhibitory concentration, Acinetobacter baumannii ATCC17978, Iso-Sensitest broth, OD 600 nm over 16 h, read-out: ATCC17978 IC90
# [2] = Acinetobacter baumannii, ATCC17978, 16 h, read-out: ATCC17978 IC90, 90% growth inhibitory concentration, Acinetobacter baumannii ATCC17978, Iso-Sensitest broth, OD 600 nm over 16 h
IC90 [1] [nM],Structure (SMILES),IC90 [2] [nM]
340,"CCc1cc(Nc2nccn3c(-c4ccc(OC)c(F)c4F)cnc23)ccc1C(=O)N1CCN(C(=O)[C@@H]2CCNC[C@@H]2O)CC1 (racemic) [Example 547, [4-[[3-(2,3-difluoro-4-methoxyphenyl)imidazo[1,2-a]pyrazin-8-yl]amino]-2-ethylphenyl]-[4-[rac-(3R,4R)-3-hydroxypiperidine-4-carbonyl]piperazin-1-yl]methanone; hydrochloride]",
140,"CNCC(=O)NCC1CCN(C(=O)c2ccc(Nc3nccn4c(-c5ccc(OCC#N)c(F)c5F)cnc34)cc2C)CC1 [Example 102, N-[[1-[4-[[3-[4-(cyanomethoxy)-2,3-difluoro-phenyl]imidazo[1,2-a]pyrazin-8-yl]amino]-2-methyl-benzoyl]-4-piperidyl]methyl]-2-(methylamino)acetamide]",
270,"CNCC1CN(C(=O)N2CCN(C(=O)c3ccc(Nc4nccn5c(-c6ccc(OC(F)F)cc6)cnc45)cc3C)CC2)CCO1 (stereo not drawn) [Example 136, [4-[[3-[4-(difluoromethoxy)phenyl]imidazo[1,2-a]pyrazin-8-yl]amino]-2-methyl-phenyl]-[4-[2-(methylaminomethyl)morpholine-4-carbonyl]piperazin-1-yl]methanone hydrochloride]",
89,"COc1ccc(-c2cnc3c(Nc4ccc(C(=O)N5CCN(C(=O)[C@@H]6CCCN6)CC5)c(C)c4)nccn23)cc1F [Example 178, [4-[[3-(3-fluoro-4-methoxy-phenyl)imidazo[1,2-a]pyrazin-8-yl]amino]-2-methyl-phenyl]-[4-[(2S)-pyrrolidine-2-carbonyl]piperazin-1-yl]methanone hydrochloride]",
150,"Cc1cc(Nc2nccn3c(-c4ccc(OCC#N)c(F)c4F)cnc23)ccc1C(=O)N1CCN(C(=O)C2(F)CCNCC2)CC1 [Example 481, 2-[2,3-difluoro-4-[8-[4-[4-(4-fluoropiperidine-4-carbonyl)piperazine-1-carbonyl]-3-methylanilino]imidazo[1,2-a]pyrazin-3-yl]phenoxy]acetonitrile; for-mic acid]",
4100,"COc1ccc(-c2cnc3c(Nc4ccc(C(=O)N5CCN(C(=O)C(CCC(=O)O)NC(=O)[C@@H](N)CCCCN)CC5)c(C)c4)nccn23)c(F)c1F (mixture of isomers) [Example 536, 5-[4-[4-[[3-(2,3-difluoro-4-methoxyphenyl)imidazo[1,2-a]pyrazin-8-yl]amino]-2-methylbenzoyl]piperazin-1-yl]-5-oxo-4-[[rac-(2R)-2,6-diaminohexanoyl]amino]pen-tanoic acid; hydrochloride]",
230,"Cc1cc(Nc2nccn3c(-c4ccc(OC(F)F)cc4)cnc23)ccc1C(=O)N1CCN(C(=O)N2CCNC(CO)C2)CC1 (stereo not drawn) [Example 133, [4-[[3-[4-(difluoromethoxy)phenyl]imidazo[1,2-a]pyrazin-8-yl]amino]-2-methyl-phenyl]-[4-[3-(hydroxymethyl)piperazine-1-carbonyl]piperazin-1-yl]methanone hydrochloride]",
1200,"COc1ccc(-c2cnc3c(Nc4ccc(C(=O)N5CCN(CCO)CC5)c(C)c4)nccn23)cc1 [Example 371, [4-(2-hydroxyethyl)piperazin-1-yl]-[4-[[3-(4-methoxyphenyl)imidazo[1,2-a]pyrazin-8-yl]amino]-2-methylphenyl]methanone]",
520,"Cc1cc(Nc2nccn3c(-c4ccc(OC(F)F)cc4)cnc23)ccc1C(=O)N1CCN(C(=O)[C@H](C)N)CC1 [Example 226, (2S)-2-amino-1-[4-[4-[[3-4-(difluoromethoxy)phenyl]imidazo[1,2-a]pyrazin-8-yl]amino]-2-methyl-benzoyl]piperazin-1-yl]propan-1-one hydrochloride]",
230,"COc1ccc(-c2cnc3c(Nc4ccc(C(=O)N5CCN(C(=O)C6CNC6)CC5)c(C)c4)nccn23)cc1F [Example 187, [4-(azetidine-3-carbonyl)piperazin-1-yl]-[4-[[3-(3-fluoro-4-methoxy-phenyl)imidazo[1,2-a]pyrazin-8-yl]amino]-2-methyl-phenyl]methanone hydrochloride]",
910,"Cc1cc(Nc2nccn3c(-c4ccc(OC(F)F)cc4)cnc23)ccc1C(=O)N1CCNCC1 [Example 129, [4-[[3-[4-(difluoromethoxy)phenyl]imidazo[1,2-a]pyrazin-8-yl]amino]-2-methyl-phenyl]-piperazin-1-yl-methanone hydrochloride]",
210,"COc1ccc(-c2cnc3c(Nc4ccc(C(=O)N5CCN(C(=O)N[C@H](C)CN)CC5)c(C)c4)nccn23)c(F)c1F [Example 148, N-[(1R)-2-amino-1-methyl-ethyl]-4-[4-[[3-(2,3-difluoro-4-methoxy-phenyl)imidazo[1,2-a]pyrazin-8-yl]amino]-2-methyl-benzoyl]piperazine-1-carboxamide hydrochloride]",
99,"Cc1cc(Nc2nccn3c(-c4ccc(OCC#N)c(F)c4F)cnc23)ccc1C(=O)N1CCC(C(=O)N2CCN[C@@H](CO)C2)CC1 [Example 543, 2-[2,3-difluoro-4-[8-[4-[4-[(3R)-3-(hydroxymethyl)piperazine-1-carbonyl]piperidine-1-carbonyl]-3-methylanilino]imidazo[1,2-a]pyrazin-3-yl]phenoxy]acetonitrile; for-mic acid]",
290,"CCc1cc(Nc2nccn3c(-c4ccc(OCC#N)c(F)c4F)cnc23)ccc1C(=O)N1CCN(C(=O)C2CCNCC2)CC1 [Example 194, 2-[4-[8-[3-ethyl-4-[4-(piperidine-4-carbonyl)piperazine-1-carbonyl]anilino]imidazo [1,2-a]pyrazin-3-yl]-2,3-difluoro-phenoxy]acetonitrile formate]",

# Continued, molecule first:
Structure (SMILES),IC90 [1] [nM],IC90 [2] [nM]
"CCC[C@H](N)C(=O)N1CCN(C(=O)c2ccc(Nc3nccn4c(-c5ccc(OC(F)F)cc5)cnc34)cc2C)CC1 [Example 343, (2S)-2-amino-1-[4-[4-[[3-[4-(difluoromethoxy)phenyl]imi-dazo[1,2-a]pyrazin-8-yl]amino]-2-methylbenzoyl]piperazin-1-yl]pentan-1-one]",,560
"Cc1cc(Nc2nccn3c(-c4ccc(OC(F)F)cc4)cnc23)ccc1C(=O)N1CCC(C(=O)O)CC1 [Example 1, 1-(4-((3-(4-(difluoromethoxy)phenyl)imidazo[1,2-a]pyrazin-8-yl)amino)-2-methylbenzoyl)piperidine-4-carboxylic acid]",1700,
"COc1ccc(-c2cnc3c(Nc4ccc(C(=O)N5CCOCC5)c(C)c4)nccn23)cc1Cl [Example 21, (4-((3-(3-chloro-4-methoxyphenyl)imidazo[1,2-a]pyrazin-8-yl)amino)-2-methylphenyl)(morpholino)methanone]",240,
"COc1ccc(-c2cnc3c(Nc4ccc(C(=O)N5CCC(O)CC5)c(C)c4)nccn23)cc1 [Example 7, (4-hydroxypiperidin-1-yl)(4-((3-(4-methoxyphenyl)imidazo[1,2-a]pyrazin-8-yl)amino)-2-methylphenyl)methanone]",660,
"CCc1cc(Nc2nccn3c(-c4ccc(OC(C)C#N)c(F)c4F)cnc23)ccc1C(=O)N1CCN(CCN(C)C)CC1 (stereo not drawn) [Example 557, 2-(4-(8-((4-(4-(2-(dimethylamino)ethyl)piperazine-1-carbonyl)-3-ethylphenyl)amino)imidazo[1,2-a]pyrazin-3-yl)-2,3-difluorophenoxy)propanenitrile]",,694
"Cc1cc(Nc2nccn3c(-c4ccc(OCC#N)c(F)c4Cl)cnc23)ccc1C(=O)N1CCC(C(=O)OC[C@@H]2CNCCN2)CC1 [Example 470, formic acid; [(2S)-piperazin-2-yl]methyl 1-[4-[[3-[2-chloro-4-(cyanomethoxy)-3-fluorophenyl]imidazo[1,2-a]pyrazin-8-yl]amino]-2-methylbenzoyl]piperidine-4-carboxylate]",,92
"COc1ccc(-c2cnc3c(Nc4ccc(C(=O)N5CCN(C(=O)[C@H]6CCNC[C@@H]6O)CC5)c(C)c4)nccn23)c(F)c1F (racemic) [Example 489, [4-[[3-(2,3-difluoro-4-methoxyphenyl)imidazo[1,2-a]pyrazin-8-yl]amino]-2-methylphenyl]-[4-[rac-(3R,4S)-3-hydroxypiperidine-4-carbonyl]piperazin-1-yl]methanone; hydrochloride]",,270
"COc1ccc(-c2cnc3c(Nc4ccc(C(=O)N5CCC(C(=O)NCC6CNCCN6)CC5)c(C)c4)nccn23)cc1F (stereo not drawn) [Example 403, 1-[4-[[3-(3-fluoro-4-methoxyphenyl)imidazo[1,2-a]pyrazin-8-yl]amino]-2-methylbenzoyl]-N-(piperazin-2-ylmethyl)piperidine-4-carboxamide; 2,2,2-trifluoroacetic acid]",,440
"Cc1cc(Nc2nccn3c(-c4ccc(OC(F)F)cc4)cnc23)ccc1C(=O)N1CCN(C(=O)[C@H]2C[C@H](N)C2)CC1 [Example 250, [4-(3-aminocyclobutanecarbonyl)piperazin-1-yl]-[4-[[3-[4-(difluoromethoxy)phenyl]imidazo[1,2-a]pyrazin-8-yl]amino]-2-methyl-phenyl]methanone hydrochloride]",,160
"Cc1cc(Nc2nccn3c(-c4ccc(OC(F)F)cc4)cnc23)ccc1C(=O)N1CCN(C(=O)Nc2ccncc2)CC1 [Example 245, 4-[4-[[3-[4-(difluoromethoxy)phenyl]imidazo[1,2-a]pyrazin-8-yl]amino]-2-methyl-benzoyl]-N-(4-pyridyl)piperazine-1-carboxamide]",120,
